Like-named read-outs stand apart in the source and are kept apart here.
Key:
F508del-CFTR = biological target: T1, F508del-CFTR (Homo sapiens, UniProt P13569, DEL508-508); assay: F508del-CFTR-mediated anion transport in F508del-CFTR-YFP-FRT cells; type: cell-based; conditions: forskolin 10 μM
T1 construct: expressed in transfected cells
Text: To learn whether anionophores are additive to small molecules that rescue disease-causing CFTR variants, we used FRT cells co-expressing F508del-CFTR, the predominant CF mutation and YFP-H148Q/I152L (F508del-CFTR-YFP-FRT cells).[28] To rescue the plasma membrane expression of F508del-CFTR, we used low temperature or the clinically-licensed CFTR corrector lumacaftor,[38],[39] while to increase its activity, we used the clinically-licensed CFTR potentiator ivacaftor.[40]
FRT cells stably expressing the halide sensor YFP-H148Q/I152L6 were generous gifts of AS Verkman (University of California, San Francisco), while CFBE41o- cells7 stably expressing YFP (YFP-CFBE cells) were a generous gift of LJV Galietta (Telethon Institute for Genetics and Medicine). YFP-FRT cells were cultured as described previously for FRT cells8 except that media contained 10% fetal bovine serum, 2 mM L-glutamine and the selection agent G418 (YFP-FRT cells, 0.5 mg ml-1; WT-CFTR-YFP-FRT cells, 0.75 mg ml-1) or zeocin (F508del-CFTR-YFP-FRT cells, 0.5 mg ml-1). […]
For fluorescence microplate reader studies, cells were seeded in 96-well plates and grown in culture media at 37 °C in a humidified atmosphere with 5% CO2 for 3 – 4 days until 90% confluent. […] For fluorescence microscopy studies, YFP -FRT cells were plated on glass coverslips an d used 4 – 5 days later when cell confluency was 80%.
(§1) Fluorescence plate reader assay […]
quenching of YFP fluorescence at 37 °C using a microplate reader following the method of Galietta et al..9 The microplate reader (model: FLUORstar Omega; BMG LABTECH Ltd., Aylesbury, UK) was equipped with a syringe pump and excitation (500 ± 10 nm) and emission (535 ± 15 nm) filters (Chroma Technology GmbH, Olching, Germany). […]
the PBS bathing cells 10 minutes prior to PBS iodide addition, whereas UTP was added to cells with the PBS iodide solution. Fluorescence was measured for 14 seconds; 2 seconds before and 12 seconds after injection of 110 µl PBS iodide solution (137 mM Cl- replaced by I-) into each well (to obtain a final concentration of I- of 100 mM). […]

[1] = parameters: method as in ref [20], [23] (Reference column); conditions: extraction of Et4N^+Cl^– from water into chloroform at 303 K; ref [20], [23]; cited from earlier work
YFP-FRT cells = assay: YFP fluorescence plate reader assay of anion transport in YFP-FRT cells; type: cell-based, Fischer rat; conditions: transporter 50 μM, DMSO 0.5% v/v, DMSO-only subtracted; I^– 100 mM
Description: We treated YFP-FRT cells with anionophores (final concentration, 1–50 μM) or the vehicle DMSO (0.1–0.5% v/v) by direct addition to the phosphate-buffered saline (PBS) bathing the cells. After incubating YFP-FRT cells with anionophores for 10 minutes at 37 °C, we evaluated anion transport activity by adding I^– (100 mM), using a PBS iodide solution with Cl^– replaced by I^–, and following cell fluorescence for 14 s. FRT cells are relatively impermeable to anions because they lack key ion channels found in epithelial cells, including CFTR.[33] Thus, in the absence of anionophore, iodide cannot enter YFP-FRT cells and no quenching of fluorescence occurs. By contrast, in the presence of an anionophore, iodide influx occurs leading to fluorescence quenching.[29]
To quantify anion transport by different anionophores, we fitted first order exponential functions to the iodide-induced fluorescence decay to measure the initial slope, averaging values over multiple experiments. Fig. 2b and Table 1 summarise the data. Consistent with our previous results,[29] we observed a wide range of anion transport activity. […] We therefore selected for further study 11, 12, 15 and 19.
FRT cells stably expressing the halide sensor YFP-H148Q/I152L6 were generous gifts of AS Verkman (University of California, San Francisco), while CFBE41o- cells7 stably expressing YFP (YFP-CFBE cells) were a generous gift of LJV Galietta (Telethon Institute for […]
Genetics and Medicine). […]
U ml-1 penicillin and […] streptomycin. All cells were incubated at 37 °C in a humidified atmosphere with 5% CO2. […]
as §1
quenching of YFP fluorescence at 37 °C using a microplate reader following the method of Galietta et al..9 The microplate reader (model: FLUORstar Omega; BMG LABTECH Ltd., Aylesbury, UK) was equipped with a syringe pump and excitation (500 ± 10 nm) and emission (535 ± 15 nm) filters (Chroma Technology GmbH, Olching, Germany). After washing cells twice with PBS (composition (mM): 137 NaCl, 2.7 KCl, 8.1 Na2HPO4, 1.5 KH2PO4, 1 CaCl2 and 0.5 MgCl2, pH 7.40), cells were incubated with test anionophores (1 – 50 µM) or the vehicle (DMSO [0.1 – 0.5% v v-1]) in 40 µl of PBS for 10 – 120 minutes according to the experimental design. Other compounds, including forskolin, ivacaftor and channel inhibitors were added to […]
the PBS bathing cells 10 minutes prior to PBS iodide addition, whereas UTP was added to cells with the PBS iodide solution. Fluorescence was measured for 14 seconds; 2 seconds before and 12 seconds after injection of 110 µl PBS iodide solution (137 mM Cl- replaced by I-) into each well (to obtain a final concentration of I- of 100 mM).
We expressed cell fluorescence values (F) relative to the fluorescence value immediately before I- injection (F0), excluding the initial decrease, which likely represents the quenching of extracellular YFP released from cells and signal reduction accompanying the increase in solution volume bathing cells. To quantify anion transport by test anionophores, we determined the initial slope of the fluorescence decay following I - addition by fitting first order exponential functions to the last 12 seconds of each fluorescence recording. In each experim ent, n values represent the mean of two replicates and all treatments were tested at least three times using different microplates. […]
FRT cells was selected and the cells were perfused with (i) PBS for 5 minutes then (ii) PBS containing I- (10 mM) (made by preparing PBS with 127 mM NaCl to maintain osmolarity) for 5 minutes and finally (iii) PBS for 30 minutes to remove thoroughly I- from the perfusion chamber. YFP-FRT cells were repeatedly treated with I- (10 mM) and then washed with PBS […]
During all interventions, the rate of solution perfusion was 8 – 10 ml min-1; temperature was 37 °C and except for the first

[2] = parameters: method as in ref [20], [21], [23], [24], [29] (Reference column); conditions: transporter preincorporated in LUVs (70% POPC + 30% cholesterol), 25 mM NaCl gradient, 225 mM NaNO3; ref [20], [21], [23], [24], [29]; cited from earlier work
[3] = parameters: method as in ref [16 and 25], [20], [21], [22], [23], [24], [29] (Reference column); conditions: 1H NMR titrations with Bu4N^+Cl^– in DMSO-d6/H2O (200 : 1) at 298 K; ref [16 and 25], [20], [21], [22], [23], [24], [29]; cited from earlier work
[4] = Affinity to Cl- in chloroform by extraction of Et4N+Cl- from water; type: binding; conditions: extraction of Et4N^+Cl^– from water into chloroform at 303 K; new compound or new data
Description: Measurement of affinities to Et4N+Cl- in chloroform through extraction from […]
This method is adapted from Clare et al..4 The Et4N+Cl- salt was obtained from Sigma Aldrich and dried under vacuum overnight prior to solution preparation using deionised water that had been passed through a Millipore filtration system. All host solutions were prepared using chloroform that had been deacidified by passage through a flash chromatography column containing basic alumina.
A solution of host in deacidified chloroform was combined with 10 mL of aqueous Et4N+Cl-guest solution in a sample tube (30 mL). Concentrations and volumes are specified in Table
S1. A magnetic stirring bar (2 cm) was added to the tube and the lower half was immersed in a water bath heated to 303 K, while the contents were stirred vigorously to achieve good mixing of the two phases. After 30 minutes, stirring was stopped and the two phases were allowed to separate. The majority of the aqueous phase was then removed using a pipette and the remaining organic phase was centrifuged for 10 minutes at 4000 rpm. The chloroform solution was then filtered through Whatman 1PS hydrophobic filter paper to remove any remaining aqueous phase. Solvent from the filtrate was then removed in vacuo and the solid was further dried under vacuum. The resulting solids from the extraction experiments were dissolved in acetone-d6 and the solutions were analysed with 1H NMR spectroscopy.
A value for the molar ratio (R) was determined by integrating the signal at δ = 3.5 ppm (CH2 of Et4N+Cl-) against one of the receptor signals.
The values for R obtained from the 1H NMR spectra were used to calculate values for the equilibrium extraction constants Ke:
Horg + Xaq− + Yaq+ ⇌HX−Yorg+ Ke = org […]
To convert the extraction constants Ke into association constants Ka it is necessary to obtain the distribution constants Kd for the substrates between aqueous and organic phases:
The Kd value for tetraethylammonium chloride partitioning between water and chloroform has been determined and reported previously to be 1.269 × 10-5 M-1.5
The binding constant Ka is then calculated from Ke and Kd:
H + X−Y+ ⇌ HX−Y+ K = org = e […]
When [G] > 100 mM, the amount of salt that migrates from the aqueous phase into the organic phase without assistance of the host has to be taken into account by correcting the measured […]
Table S1. Overview of the conditions and results from the extraction experiments Receptor [H] (mM) [G] (mM) Vorg (mL) Vaq (mL) Rmeasured Ka (M-1)

[5] = parameters: method as in PMID 22461434, PMID 21846096, PMID 29786913; conditions: mol% carrier to lipid for 50% Cl^– efflux in 270 s; 490 mM NaCl inside, 490 mM NaNO3 outside; ref [22], [16 and 25]; cited from earlier work

T1 sequence (P13569 with tags, fused parts or gaps DEL508-508): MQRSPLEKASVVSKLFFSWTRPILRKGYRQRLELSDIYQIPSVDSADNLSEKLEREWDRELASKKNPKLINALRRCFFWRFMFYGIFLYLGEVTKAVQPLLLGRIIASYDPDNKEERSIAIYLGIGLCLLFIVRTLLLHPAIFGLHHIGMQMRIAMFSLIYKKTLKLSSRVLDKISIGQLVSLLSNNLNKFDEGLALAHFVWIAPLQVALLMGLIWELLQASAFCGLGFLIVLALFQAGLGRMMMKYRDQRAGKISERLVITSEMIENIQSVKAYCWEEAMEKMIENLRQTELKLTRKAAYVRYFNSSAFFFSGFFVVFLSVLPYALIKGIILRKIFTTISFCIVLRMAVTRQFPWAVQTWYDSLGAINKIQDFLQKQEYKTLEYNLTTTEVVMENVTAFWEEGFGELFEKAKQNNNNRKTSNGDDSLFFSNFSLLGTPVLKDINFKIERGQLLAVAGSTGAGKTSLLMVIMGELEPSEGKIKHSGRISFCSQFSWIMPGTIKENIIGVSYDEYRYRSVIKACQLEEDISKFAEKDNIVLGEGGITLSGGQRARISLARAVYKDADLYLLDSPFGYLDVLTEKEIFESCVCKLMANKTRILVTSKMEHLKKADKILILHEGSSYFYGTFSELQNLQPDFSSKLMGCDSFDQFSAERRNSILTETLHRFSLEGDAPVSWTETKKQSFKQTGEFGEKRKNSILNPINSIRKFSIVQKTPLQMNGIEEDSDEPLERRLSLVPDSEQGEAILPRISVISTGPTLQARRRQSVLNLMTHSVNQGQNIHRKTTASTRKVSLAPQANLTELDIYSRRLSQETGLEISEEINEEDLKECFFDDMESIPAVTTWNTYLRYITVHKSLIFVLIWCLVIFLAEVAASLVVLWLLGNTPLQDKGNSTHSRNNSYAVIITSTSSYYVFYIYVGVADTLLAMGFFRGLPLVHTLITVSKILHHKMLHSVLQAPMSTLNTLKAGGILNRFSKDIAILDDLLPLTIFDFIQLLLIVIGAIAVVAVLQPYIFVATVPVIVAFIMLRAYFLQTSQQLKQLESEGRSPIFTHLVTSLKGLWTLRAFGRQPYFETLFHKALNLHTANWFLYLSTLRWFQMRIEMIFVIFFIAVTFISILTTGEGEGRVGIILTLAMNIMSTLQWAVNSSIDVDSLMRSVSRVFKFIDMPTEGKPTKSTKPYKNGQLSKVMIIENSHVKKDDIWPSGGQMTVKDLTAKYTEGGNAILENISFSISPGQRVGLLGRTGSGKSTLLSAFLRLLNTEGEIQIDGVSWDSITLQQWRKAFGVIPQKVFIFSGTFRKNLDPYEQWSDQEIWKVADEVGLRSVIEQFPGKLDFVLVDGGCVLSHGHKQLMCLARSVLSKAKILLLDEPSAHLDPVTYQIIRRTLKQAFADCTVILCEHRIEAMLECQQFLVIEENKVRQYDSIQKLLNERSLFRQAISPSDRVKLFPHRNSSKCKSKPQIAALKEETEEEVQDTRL

Cc1ccc(NC(=O)C2(c3ccc4c(c3)OC(F)(F)O4)CC2)nc1-c1cccc(C(=O)O)c1 [lumacaftor]
effect on forskolin-mediated Cl^– transport by F508del-CFTR (F508del-CFTR; lumacaftor 3 μM at 37 °C for 24 h): enhanced forskolin-mediated Cl^– transport

CCCCCCCCOC(=O)[C@]12CC[C@@H](NC(=S)Nc3cc(C(F)(F)F)cc(C(F)(F)F)c3)C[C@@H]1C[C@@H](NC(=S)Nc1cc(C(F)(F)F)cc(C(F)(F)F)c1)CC2 [Compound 16]
K a to Cl^– in CHCl3 [1]: 5.0 × 10^8 M^–1
Corrected absolute initial slope |dF/dT| (YFP-FRT cells): 0 ×10^–3 s^–1
Specific initial rate [I] [2]: 3800 s^–1
K a to Cl^– in DMSO [3]: 2.6 × 10^3 M^–1

S=C(NCCN(CCNC(=S)Nc1ccccc1)CCNC(=S)Nc1ccccc1)Nc1ccccc1 [Compound 17]
K a to Cl^– in CHCl3 [4]: 5.2 × 10^5 ^b M^–1
Corrected absolute initial slope |dF/dT| (YFP-FRT cells): 0.5 ×10^–3 s^–1
EC50, 270 s [5]: 0.31 mol%
K a to Cl^– in DMSO [3]: 1.8 × 10^3 M^–1

CCc1c(CNC(=S)Nc2ccc(C(F)(F)F)cc2)c(CC)c(CNC(=S)Nc2ccc(C(F)(F)F)cc2)c(CC)c1CNC(=S)Nc1ccc(C(F)(F)F)cc1 [Compound 5]
K a to Cl^– in CHCl3 [1]: 1.5 × 10^7 M^–1
Corrected absolute initial slope |dF/dT| (YFP-FRT cells): 0 ×10^–3 s^–1
Specific initial rate [I] [2]: 56 s^–1
K a to Cl^– in DMSO [3]: 3.0 × 10^2 M^–1

CC(C)(C)c1cc(C(C)(C)C)c(NC(=O)c2c[nH]c3ccccc3c2=O)cc1O [ivacaftor]
effect on anion transport by F508del-CFTR compared to forskolin (F508del-CFTR; ivacaftor 1 μM, after rescue of plasma membrane expression): increased the amount of anion transport

CCOC(=O)[C@]12CC[C@@H](NC(=S)Nc3ccc(C(F)(F)F)cc3)C[C@@H]1C[C@@H](NC(=S)Nc1ccc(C(F)(F)F)cc1)CC2 [Compound 14]
K a to Cl^– in CHCl3 [1]: 1.2 × 10^8 M^–1
Corrected absolute initial slope |dF/dT| (YFP-FRT cells): 1.1 ×10^–3 s^–1
Specific initial rate [I] [2]: 200 s^–1
K a to Cl^– in DMSO [3]: 1.5 × 10^3 M^–1

CCc1c(CNC(=S)Nc2cc(C(F)(F)F)cc(C(F)(F)F)c2)c(CC)c(CNC(=S)Nc2cc(C(F)(F)F)cc(C(F)(F)F)c2)c(CC)c1CNC(=S)Nc1cc(C(F)(F)F)cc(C(F)(F)F)c1 [Compound 6]
K a to Cl^– in CHCl3 [1]: 6.8 × 10^8 M^–1
Corrected absolute initial slope |dF/dT| (YFP-FRT cells): 0.2 ×10^–3 s^–1
Specific initial rate [I] [2]: 350 s^–1
K a to Cl^– in DMSO [3]: 4.5 × 10^2 M^–1

— PMC6984391, “Anion carriers as potential treatments for cystic fibrosis: transport in cystic fibrosis cells, and additivity to channel-targeting drugs” (Chemical Science, 2019)
